Test results from ChEMBL document CHEMBL1157539, “Thousands of chemical starting points for antimalarial lead identification” (Nature, 2010).

Test system: Plasmodium falciparum
Assay: GSK_TCMDC: Inhibition of Plasmodium falciparum 3D7 in whole erythrocytes, using parasite LDH activity as an index of growth.
Assay type: functional, organism-based
Settings: Plasmodium falciparum, 3D7

| Structure (SMILES) | XC50 |
| --- | --- |
| COC(=O)CCCCOc1c(OC)cc(Cc2cnc(N)nc2N)cc1OC | 0.0393 µM |
| Cc1nc(O)c2c(ccc3ccc(CNc4ccc(C(=O)N[C@@H](CCC(=O)O)C(=O)O)cc4)cc32)n1 | 0.177 µM |
| O=C(/C=C/c1ccc(Cl)c(Cl)c1)NCCCCCN1CCCN(C(=O)Nc2ccc(Cl)cc2)CC1 | 0.735 µM |
| CCCc1cc(Cc2cnc(N)nc2N)cc(OC)c1OC | 0.988 µM |
| CS(=O)(=O)CCNCc1cc(-c2cc3ncnc(Nc4ccc(OCc5cccc(F)c5)c(Cl)c4)c3s2)cs1 | 0.326 µM |
| O=[N+]([O-])c1ccc(C=NNc2nc(Nc3ccccc3)nc(Nc3ccccc3)n2)o1 | 0.837 µM |
| O=S(=O)(c1cc2ccccc2s1)N(CCC(O)(C(F)(F)F)C(F)(F)F)Cc1cccc(O)c1 | 0.751 µM |
| CCCN(CCC)C(=O)c1cc(C(=O)N[C@@H](Cc2ccccc2)[C@H](O)CNCc2cccc(C(F)(F)F)c2)cc(N2CCCCS2(=O)=O)c1 | 0.876 µM |
| CC(C)C(C(=O)Nc1ccc(S(=O)(=O)N(C)C)cc1)c1ccc(Cl)cc1 (stereo not drawn) | 0.937 µM |
| O=C(Nc1cc(C(F)(F)F)cc(C(F)(F)F)c1)Nc1ccc(Cl)c(Cl)c1 | 0.24 µM |
| COc1ccc(OC)c(C(O)CNC(C)C)c1 (stereo not drawn) | 0.056 µM |
| Cc1c(C2CCN(CCCCNC(=O)c3ccc(-c4ccc(C#N)cc4)cc3)CC2)c2ccccc2n1CCO | 0.995 µM |
| CCNC(=O)Nc1ccc(N(C)c2ccnc(Nc3ccc(CS(C)(=O)=O)cc3)n2)cc1 | 0.0888 µM |
| CCOc1ccc(-c2nonc2NC(=O)c2ccc(F)cc2)cc1OCC | 0.327 µM |
| CC(=O)c1c(Nc2c(C)cc(C)cc2C)oc(C)cc1=O | 0.481 µM |
| NC1CCN(Cc2ccc(-c3ccc(-c4nc5cc(F)ccc5[nH]4)s3)cc2)C1 (stereo not drawn) | 0.646 µM |
| CC(C)(C)c1ccc(CNC(=O)c2ccc(-c3nc4ccc(Cl)cc4[nH]3)cc2)cc1 | 0.819 µM |
| O=C(N[C@@H](Cc1ccccc1)[C@H](O)CNC1CCCc2ccccc21)c1cc(C2CCCC2)cc(N2CCCC2=O)c1 (stereo partly drawn) | 0.162 µM |
| Cc1c(S(=O)(=O)Nc2cccc(CCN3CCCCC3CCN3CCCC3)c2)sc2ccc(Cl)cc12 (stereo not drawn) | 0.925 µM |
| CCc1nc2c(cnn2CC)c(NC2CCOCC2)c1CNC(=O)c1ccoc1C | 0.886 µM |
| O=C(Nc1cccc(-c2cccc(-c3nc4ccccc4[nH]3)c2)c1)c1ccncc1 | 0.479 µM |
| CCNc1cc(C(=O)N[C@@H](Cc2ccccc2)[C@H](O)CNCCc2cccc3ccccc23)cc(N2CCCC2=O)c1 | 0.982 µM |
| CN1CCC(NCc2ccc(S(=O)(=O)Nc3ccc(Oc4cccc(Cl)c4)cc3)cc2)CC1 | 0.735 µM |
| Cc1ccccc1C1CCN(C2CCC(NC(=O)/C=C/c3c(F)ccc(F)c3F)CC2)CC1 (stereo not drawn) | 1.26 µM |
| c1ccc(CN2CCC(NCc3ccccc3-c3ccc(CNCc4ccc5c(c4)OCO5)cc3)CC2)cc1 | 0.326 µM |

| Structure (SMILES) | XC50 |
| --- | --- |
| C[C@@H](COc1ccccc1)NCC(O)c1ccc([N+](=O)[O-])c(OCc2ccccc2)c1 (stereo partly drawn) | 0.994 µM |
| O=C(Cn1c2ccccc2c(=O)c2ccc(Cl)cc21)Nc1ccc(C(F)(F)F)cc1 | 0.53 µM |
| CN(Cc1cccc(O)c1)C1CCN(c2cc(NC(=O)c3ccc(F)cc3)ccn2)CC1 | 0.956 µM |
| CN(C)Cc1ccc2cc(NC(=O)c3ccc(-c4ccc(Cl)cc4)cc3)ccc2n1 | 0.849 µM |
| CN(C)Cc1ccc(-c2ccc3c(Nc4ccc(Oc5ccccc5)cc4)ccnc3c2)o1 | 0.788 µM |
| Nc1nc2c(ncn2COC(COCc2ccccc2)COCc2ccccc2)c(=O)[nH]1.Nc1nc2ncn(COC(COCc3ccccc3)COCc3ccccc3)c2c(=O)[nH]1 | 0.714 µM |
| CCCCc1cc(=O)oc2cc(C)cc(OCc3ccccc3F)c12 | 1.03 µM |
| COc1ccc(CNc2ccc3nc(N)nc(N)c3c2)cc1 | 0.173 µM |
| COc1ccc(C(=O)NC(Nc2ccc([N+](=O)[O-])cc2)C(Cl)(Cl)Cl)cc1 (stereo not drawn) | 1.07 µM |
| Cc1nc2nc(N)nc(N)c2c(C)c1Cc1ccccc1I | 0.351 µM |
| Cc1cccc2nc(-c3ccc(-c4ccc(NC(=O)Nc5cccc(C#N)c5)cc4)s3)[nH]c12 | 0.117 µM |
| COc1ccc2nccc([C@@H](O)CN3CCC(NC(=O)C(c4cccs4)N4CCN(c5ccc(F)cc5)CC4)CC3)c2c1 (stereo partly drawn) | 0.817 µM |
| O=C(Nc1cccc(CN2CCCN(Cc3ccc(O)cc3)CC2)c1)c1cccc(Cl)c1 | 0.908 µM |
| COc1cccc(-c2ccc(O)c(CNCCc3cccc(F)c3)c2)n1 | 0.914 µM |
| COc1ccc2nccc(N(C)CC3(O)CCN(CC(O)c4ccc5c(c4)NC(=O)CS5)CC3)c2n1 (stereo not drawn) | 0.59 µM |
| COc1ccc(-c2ccc(NC(=O)c3cccc(C#N)c3)cc2)cc1CN1CCCN(C)CC1 | 0.293 µM |
| Cc1ccc(-c2cc(C(=O)Nc3ccc(S(=O)(=O)N4CCOCC4)cc3)[nH]n2)c(O)c1C | 0.92 µM |
| Cc1noc(-c2ccc3c(c2)CCN(CCC2CCC(NC(=O)/C=C/c4ccc(F)cc4)CC2)CC3)n1 (stereo not drawn) | 1.03 µM |
| Cc1cccc2nc(-c3cccc(-c4cccc(CNCC5CCCO5)c4)c3)[nH]c12 (stereo not drawn) | 0.602 µM |
| COc1ccc2c(NN=Cc3ccc(N(C)C)cc3)ccnc2c1 | 0.663 µM |
| Cc1noc(C)c1-c1ccc2c(Nc3ccccc3N3CCOCC3)c(C(=O)NCc3ccccc3)cnc2c1 | 1.18 µM |
| CCCCCc1cc(OC(=O)CCCN(CC)CC)c2c(c1)OC(C)(C)C=C2C1=CCN(Cc2ccc3ccccc3c2)CC1 | 0.156 µM |
| O=c1c(Br)c(C(F)(F)F)[nH]c2ccc(Oc3ccccc3)cc12 | 1.1 µM |
| Cc1ccc(-c2nc3cc(NC(=O)c4ccc([N+](=O)[O-])o4)ccc3o2)cc1Cl | 0.16 µM |
| Cc1noc(C)c1-c1ccc2c(Nc3ccccc3C(C)(C)C)c(C(=O)NCc3cccc4ccccc34)cnc2c1 | 0.941 µM |

| Structure (SMILES) | XC50 |
| --- | --- |
| CCCCCNc1nc(Nc2ccccc2C)nc2ccccc12 | 0.735 µM |
| NC(=S)Cc1ccc2c(c1)OCO2 | 0.284 µM |
| COc1ccc(Cn2c(Nc3cccc(C(F)(F)F)c3)nc3cc(C(=O)NC4CC4)cnc32)cc1Cl | 0.727 µM |
| CN(C)CCN(C)Cc1cccc(-c2ccc3c(Nc4ccc(F)cc4Cl)ccnc3c2)c1 | 0.11 µM |
| O=C(NC1CCCCC1)c1ccc(O)c(-c2cccc(C(F)(F)F)c2)c1 | 0.712 µM |
| COc1ccc2nccc([C@@H](O)CN3CCC(NC(=O)/C=C/c4cc(F)cc(Br)c4)CC3)c2c1 | 0.172 µM |
| COc1cc(C=CC(=O)NC2CCC(CN3CCC(c4c[nH]c5ccccc45)CC3)CC2)cc(OC)c1 (stereo not drawn) | 0.807 µM |
| CN1CCN(CCCN(Cc2csc(-c3ccc(CNCc4ccccc4)cc3)n2)C(=O)Nc2ccc3ccccc3c2)CC1 | 1.1 µM |
| CNC(=O)c1ccccc1Nc1nc(Nc2ccc(CCN3CCN(C)CC3)cc2)ncc1Cl | 0.651 µM |
| Cc1[nH]c(C)c(-c2ccc(CCc3ccc(F)cc3F)cc2)c(=O)c1Cl | 0.0159 µM |
| CC(C)C[C@@H](C(=O)N[C@@H](CCCCNC(=O)OCc1ccccc1)C(=O)Nc1nccs1)[C@H](C)N(O)C=O | 0.19 µM |
| O=C(Nc1ccc(Cn2ncc(N3CCNCC3)c(Cl)c2=O)cc1)Nc1ccc(-c2ccccc2)cc1 | 0.591 µM |
| O=C(NC1CCC(N2CCC(O)(c3ccc(F)cc3)CC2)CC1)c1cc2ccccc2[nH]1 (stereo not drawn) | 0.736 µM |
| CC(=O)Nc1ccc(C(=O)Nc2cccc(-c3cccc(-c4nc5cc(F)ccc5[nH]4)c3)c2)cn1 | 0.134 µM |
| COc1ccc(Cl)cc1N1CCN(CCCNC(=O)c2ccc(-c3nc4cc(Cl)c(C)cc4[nH]3)s2)CC1 | 0.776 µM |
| Cc1ccc(NC(=O)NCCCCCN2CCC(c3c[nH]c4ccccc34)CC2)cc1I | 0.815 µM |
| COc1ccc(C=C2SC(=N)N(c3ccccc3OC)C2=O)cc1 | 0.3 µM |
| Cc1cc(C(=O)CN2C(=O)NC3(CCOc4ccccc43)C2=O)c(C)n1Cc1ccc(F)cc1 (stereo not drawn) | 0.881 µM |
| Brc1cc(Br)c2c(c1)C(NCCCNc1nc3ncccc3[nH]1)CCN2 (stereo not drawn) | 0.595 µM |
| C/C=C/C=C/C1=NCCc2cc(OCCC)ccc21 | 0.914 µM |
| COc1ccc2ncc(F)c(CCN3CC(O)C(CNCc4ccc5c(n4)NC(=O)CS5)C3)c2c1 (stereo not drawn) | 0.784 µM |
| Nc1nc(N)c2c(ccc3c2ccn3CCCC2CCCNC2)n1 (stereo not drawn) | 0.898 µM |
| O=C(NCc1ccccc1)C1Cc2c([nH]c3ccc(Br)cc23)C2(CCN(Cc3ccccc3)CC2)N1 (stereo not drawn) | 0.873 µM |
| Oc1cccc(C2CCCN(Cc3cccc4cc[nH]c34)C2)c1 (stereo not drawn) | 0.507 µM |
| Cc1cc(OCCCn2ccnc2)ccc1-c1csc(/N=C(\N)NCc2ccccc2)n1 | 0.878 µM |

| Structure (SMILES) | XC50 |
| --- | --- |
| O=C(Nc1cccc(-c2cccc(-c3nc4cc(F)ccc4[nH]3)c2)c1)c1ccncc1 | 0.514 µM |
| Cc1cc(OCc2ccccc2)c(OCc2ccccc2)cc1C(O)CN(C)Cc1ccccc1 (stereo not drawn) | 0.809 µM |
| CCCc1cc(Cc2cnc(N)nc2N)cc(CCC)c1O | 0.277 µM |
| FC(F)(F)c1ccccc1OCc1cc(-c2ccncc2)c(COc2ccccc2C(F)(F)F)cc1C1=CCNCC1 | 0.89 µM |
| COc1ccc(NC(=O)c2cc(NC(=O)C3(N)CC3)c(=O)n(Cc3ccc(C(N)=O)cc3)c2)cc1 | 0.792 µM |
| Cc1cc(=O)c(-c2ccc(Oc3ccc(C(F)(F)F)cc3)cc2)c(C)n1O | 0.604 µM |
| CN(C)CCCOc1ccc(CN2CC[C@H](NC(=O)c3ccc(Cl)c(Cl)c3)C2)cc1Br | 0.763 µM |
| Cc1ccc2[nH]c(C)cc(=NN=Cc3cccc(Cl)c3)c2c1 | 0.739 µM |
| CN1CCN(c2ccnc3ccc(NC(=O)Cc4cccc(Cl)c4Cl)cc23)CC1 | 0.791 µM |
| Cc1cc(Nc2ccc3c(c2)CCC3)n2ncnc2n1 | 0.967 µM |
| Cc1nn(-c2ccc(Cl)cc2)c2[nH]c(CN3CCN(c4cccc(Cl)c4)CC3)cc(=O)c12 | 0.24 µM |
| Cc1cccc2nc(-c3ccc(-c4ccc(CN5CCCCC5)cc4)s3)[nH]c12 | 0.521 µM |
| NC(=O)c1cccc(C(=O)Nc2cccc(-c3csc(-c4nc5ccccc5[nH]4)c3)c2)c1 | 0.133 µM |
| Oc1ccccc1CNCC12CC3CC(CC(C3)C1)C2 | 0.279 µM |
| COc1ccc(-c2cncc3ccc(C(=O)NCc4ccncc4)nc23)cc1 | 0.736 µM |
| COc1cc(CNc2ncc(-c3ccsc3)c(-c3nccs3)n2)cc(OC)c1 | 0.126 µM |
| Cc1cc(N2CCCC2)nc(Nc2ccc(NC(=O)Nc3ccccc3)cc2)n1 | 0.165 µM |
| CC[C@H]1CN2CC[C@H]1C[C@H]2[C@H](O)c1cc(-c2cccc(F)c2)nc2ccc(OC)cc12 | 0.0582 µM |
| COc1ccc2nccc([C@@H](O)CN3CCC(NC(=O)c4ccc(Cl)c([N+](=O)[O-])c4)CC3)c2c1 | 0.954 µM |
| O=C1C(c2ccccc2)=C(Nc2ccc(OC(F)(F)F)cc2)c2ccccc21 | 0.107 µM |
| Clc1ccc(CNc2ccnc(NCCc3coc4ccccc34)n2)c(Cl)c1 | 1.17 µM |
| COc1ccc(Cn2ccc3c4c(N)nc(N)nc4ccc32)cc1 | 0.0032 µM |
| COc1ccc(-c2ccc(NC(=O)c3ccc(C#N)cc3)cc2)cc1CN(C)CCO | 0.629 µM |
